Results reported in ChEMBL document CHEMBL5244240, “MmpL3 inhibitors as antituberculosis drugs” (Eur J Med Chem, 2020).
≈ marks a conversion by molar mass, not a printed value.

Experiments:
[1] = system: Mycobacterium tuberculosis; test: Antitubercular activity against low oxygen adapted Mycobacterium tuberculosis H37Rv; format: functional
[2] = system: Mycobacterium tuberculosis; test: Antitubercular activity against multidrug resistant Mycobacterium tuberculosis; format: functional

| SMILES | MIC [1] [µM] | MIC [2] [µM] |
| --- | --- | --- |
| COc1ccc(-c2cc(CN3CCSCC3)c(C)n2-c2ccc(F)cc2)cc1 | 10.1 (≈ 4 µg/mL) |  |
| CC1(C)CCC(NC(=O)c2cc3c(F)cc(F)cc3[nH]2)CC1 |  | < 0.04 |
| CC1(C)CCC(NC(=O)c2cc3c(Cl)cc(Cl)cc3[nH]2)CC1 |  | < 0.04 |
| Cc1c(CN2CCOCC2)cc(-c2ccc(C(C)C)cc2)n1-c1ccc(F)cc1 | 28.7 (≈ 11.3 µg/mL) |  |
